These are literature values, as cited in US6803486B2, “Selective neuronal nitric oxide synthase inhibitors” (Northwestern University, priority 2001, dated 2004).

Each structure is given as a SMILES string. Non-standard residues stand in square brackets, D forms with d. Residues, ends and D or L forms follow the SMILES beside them. dArg(NO2) = N=C(NCCC[C@@H](N)C(=O)O)N[N+](=O)[O-]

One data set deals with T1, recombinant rat nNOS (Rattus norvegicus, UniProt P29476).
T1 construct: made in house; host or cells: E. coli
The following applies: cited from earlier work.

For the next data set, the target named is T2, recombinant murine iNOS (Mus musculus, UniProt P29477).
T2 construct: made in house; host or cells: E. coli
The note with it: Table 2; data taken from ref 10; cited from earlier work.

A further data set concerns the target recombinant bovine eNOS (Bos taurus, UniProt P29473). On the set-up: made in house; host or cells: E. coli. The following applies: Table 2; data taken from ref 10; cited from earlier work.
The mark [1] stands for this setting: Table 2, data taken from ref 10.

As for `COC(=O)[C@@H](CCCN=C(N)N[N+](=O)[O-])NC(=O)[C@H](N)Cc1ccccc1` [D-Phe-D-Arg^NO2-OMe] (H-[dF]-[dArg(NO2)]-OMe), at recombinant rat nNOS (setting [1]), the Ki was 2 µM, the “Selectivity ENOS/nNOS” value is reported as 2.5 and the “Selectivity iNOS/nNOS” value was 1800. For the same compound, the “selectivity over iNOS” value at recombinant rat nNOS (prior art compound, nNOS over iNOS) is given as 1800 fold. Also, the Ki at recombinant murine iNOS is 3600 µM. Further, the Ki at recombinant bovine eNOS is 5 µM.

In general, Ki refers to a dissociation constant, usually derived from enzyme kinetics or from competition with a known ligand.
